# According to the supplement of paper PMC10307832:
# How the values were obtained:
# [1] = compound: Cc1ccc2nc(NCCN)c3ncc(C)n3c2c1 + NC(=O)Nc1cc(-c2cccc(F)c2)sc1C(=O)N[C@H]1CCCNC1 [AZD7762] (partner 0.2 µM); experiment: relative viability (nuclei count vs DMSO), 5 days (fraction); higher = more cells survive
# Outline: (§1)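 Dosing by pin tool came one day after lung cancer cell lines were seeded in 1536-well plates, using either one drug or a fixed anchor-drug dose plus five library-drug doses (not always all listed) in √10 steps. After 5 days, nuclei were counted on 4× images. Relative viability is treated-well nuclei count divided by vehicle-well nuclei count, and values are medians of duplicate plates.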
# [2] = compound: Cc1ccc2nc(NCCN)c3ncc(C)n3c2c1 + O=C(CCCCCCC(=O)Nc1ccccc1)NO [Vorinostat] (partner 1 µM); experiment: as above
# Outline: as §1
Cell Line,relative viability ([1]; first compound 0.04 µM),relative viability ([1]; first compound 0.1265 µM),relative viability ([1]; first compound 0.4 µM),relative viability ([1]; first compound 1.265 µM),relative viability ([1]; first compound 4 µM),relative viability ([2]; first compound 0.04 µM),relative viability ([2]; first compound 0.1265 µM),relative viability ([2]; first compound 0.4 µM),relative viability ([2]; first compound 1.265 µM),relative viability ([2]; first compound 4 µM)
NCI-H596,1.07,1.08,1.04,0.915,1.11,0.674,0.714,0.609,0.668,0.588
A-427,0.816,0.748,0.748,0.721,0.723,0.9,0.844,0.852,0.876,0.89
EMC-BAC-2,1.2,1.11,1.04,1.06,1.02,0.467,0.433,0.455,0.527,0.392
NCI-H441,1.35,1.09,1.05,1.25,1.19,0.925,0.822,0.848,0.806,0.731
LCLC-103H,0.877,0.821,0.654,0.772,0.752,0.859,0.821,0.686,0.697,0.751
HCC-827,0.222,0.265,0.224,0.207,0.18,0.851,0.793,0.872,0.857,0.81
NCI-H1355,0.75,0.685,0.72,0.644,0.763,0.721,0.599,0.633,0.634,0.671
NCI-H1734,0.573,0.596,0.517,0.559,0.546,0.816,0.824,0.637,0.733,0.77
HARA,0.401,0.33,0.256,0.274,0.337,0.473,0.648,0.422,0.499,0.426
HCC-15,1.23,1.27,1.19,1.17,1.18,0.852,0.873,0.78,0.78,0.744
LCLC-97TM1,0.409,0.321,0.216,0.269,0.225,0.865,0.867,0.526,0.759,0.737
RERF-LC-KJ,1.09,0.934,0.828,0.942,0.838,0.749,0.773,0.713,0.861,0.712
NCI-H1651,0.536,0.511,0.409,0.46,0.445,0.639,0.558,0.564,0.539,0.483
NCI-H1793,0.506,0.411,0.361,0.39,0.417,0.825,0.792,0.815,0.642,0.679
NCI-H2023,,,,,,0.682,0.689,0.568,0.682,0.638
LC-2-ad,0.86,0.806,0.822,0.86,0.795,0.724,0.689,0.652,0.69,0.689
NCI-H1703,0.131,0.114,,0.111,0.132,,,,,
NCI-H1437,1.08,1.12,1.16,0.901,1.04,0.752,0.813,0.771,0.667,0.653
SK-LU-1,,,,,,0.851,0.725,0.784,0.856,0.734
H3255,0.923,0.963,0.829,0.76,0.746,0.831,0.832,0.629,0.706,0.653
NCI-H1792,0.822,0.665,,0.768,0.674,,,,,
NCI-H2170,0.874,0.897,0.821,0.761,0.845,1.01,1.01,0.786,0.702,0.833
NCI-H1650,,,,,,0.709,0.466,0.509,0.469,0.478
NCI-H2087,1.35,1.25,1.27,1.28,1.26,0.435,0.657,0.611,0.884,0.675
HCC-366,0.272,0.278,0.318,0.228,0.239,0.421,0.359,0.244,0.361,0.296

Cell Line,relative viability ([1]; first compound 0.04 µM),relative viability ([1]; first compound 0.1265 µM),relative viability ([1]; first compound 0.4 µM),relative viability ([1]; first compound 1.265 µM),relative viability ([1]; first compound 4 µM),relative viability ([2]; first compound 0.04 µM),relative viability ([2]; first compound 0.1265 µM),relative viability ([2]; first compound 0.4 µM),relative viability ([2]; first compound 1.265 µM),relative viability ([2]; first compound 4 µM)
NCI-H727,0.611,,0.609,0.595,0.573,1.3,,1.13,1.18,1.04
LU99A,0.485,0.425,0.314,0.286,0.354,0.532,0.512,0.423,0.494,0.476
NCI-H647,0.44,0.517,0.38,0.574,0.148,0.691,0.384,0.571,0.492,0.328
HCC-78,0.828,0.72,0.616,0.752,0.586,0.502,0.426,0.402,0.383,0.436
NCI-H1755,0.476,0.45,0.492,0.435,0.433,0.806,0.899,0.728,0.696,0.857
NCI-H3122,1.05,1.04,0.98,0.973,1.05,1.13,1.28,1.01,1.05,1.37
NCI-H2342,0.548,0.655,0.479,0.452,0.479,0.869,0.689,0.701,0.784,0.704
NCI-H358,0.51,0.573,0.413,0.515,0.401,0.74,0.617,0.66,0.629,0.564
PC-14,0.388,0.298,0.239,0.399,0.287,0.766,0.693,0.763,0.718,0.567
SK-MES-1,,,,,,1.19,1.13,1.03,1.13,1.03
NCI-H2347,0.719,0.733,0.687,0.794,0.636,0.577,0.614,0.526,0.672,0.729
NCI-H2228,,,,,,0.639,0.589,0.858,0.595,0.544
EKVX,0.723,0.704,0.693,0.682,0.525,0.835,0.676,0.603,0.752,0.737
HOP-62,0.849,0.638,0.528,0.543,0.595,0.647,0.752,0.401,0.602,0.663
NCI-H2126,1.12,1.01,0.965,1.14,0.936,0.931,0.821,0.788,0.835,0.755
SW 1573,,,,,,0.85,0.903,0.669,0.865,0.65
NCI-H1944,0.48,0.64,0.456,0.351,0.498,0.639,0.581,0.358,0.491,0.581
EPLC-272H,0.228,0.404,0.214,0.177,0.166,0.564,0.406,0.279,0.374,0.415
PC-3 [JPC-3],0.883,0.623,0.829,0.728,0.591,0.825,0.752,0.709,0.774,0.734
NCI-H650,0.95,0.901,0.681,0.958,1.03,0.584,0.461,0.351,0.534,0.409
NCI-H838,1.05,0.932,0.914,0.858,0.874,0.8,0.685,0.685,0.708,0.61
COR-L 105,,,,,,0.658,1.13,0.845,0.911,0.768
NCI-H2405,0.855,0.682,0.758,0.671,0.639,1.2,0.943,0.946,1.01,0.93
NCI-H1395,0.409,0.435,0.43,0.422,0.398,0.891,0.765,0.662,0.651,0.56
NCI-H661,,,,,,0.752,0.778,0.748,0.785,0.834

Cell Line,relative viability ([1]; first compound 0.04 µM),relative viability ([1]; first compound 0.1265 µM),relative viability ([1]; first compound 0.4 µM),relative viability ([1]; first compound 1.265 µM),relative viability ([1]; first compound 4 µM),relative viability ([2]; first compound 0.04 µM),relative viability ([2]; first compound 0.1265 µM),relative viability ([2]; first compound 0.4 µM),relative viability ([2]; first compound 1.265 µM),relative viability ([2]; first compound 4 µM)
NCI-H1915,0.646,0.702,0.551,0.728,0.704,0.515,0.506,0.422,0.555,0.454
NCI-H522,0.754,0.778,0.634,0.843,0.765,0.825,0.971,0.677,0.92,1.09
CAL-12T,0.657,0.649,0.557,0.576,0.481,0.77,0.711,0.882,0.65,0.629
LXF-289,1.19,1.1,1.08,1.06,1.12,0.765,0.639,0.795,0.629,0.806
NCI-H460,0.614,0.636,0.631,0.7,0.541,0.74,0.7,0.708,0.683,0.631
NCI-H1648,0.687,0.682,0.587,0.709,0.737,0.337,0.458,0.362,0.4,0.317
NCI-H2009,,,,,,0.7,0.736,0.72,0.709,0.617
SW 900,,0.56,0.438,0.694,0.736,,0.517,0.415,0.421,0.487
201T,0.639,0.569,0.66,0.598,0.618,0.969,0.975,0.887,1.05,1.02
NCI-H23,0.282,0.297,0.261,0.228,0.22,0.759,0.654,0.501,0.493,0.578
LOU-NH91,0.869,0.789,0.753,0.702,0.733,1.02,0.902,0.87,0.931,0.858
IA-LM,,,,,,0.92,0.917,,1.06,0.981
NCI-H2085,1.06,0.996,0.916,0.952,1,0.816,0.784,0.77,0.857,0.808
COR-L23,,,,,,0.511,0.46,0.417,0.374,0.375
BEN,0.719,0.738,0.538,0.68,0.783,0.544,0.579,0.505,0.636,0.555
ChaGo-K-1,0.946,0.901,0.874,0.808,0.921,0.751,0.832,0.771,0.657,0.766
LK-2,0.393,0.612,,,0.347,0.384,0.409,0.302,0.315,0.322
NCI-H322M,0.446,0.703,0.638,0.552,0.605,0.991,0.86,0.957,1,1.09
NCI-H520,,,,,,0.719,0.725,0.808,0.674,0.574
ABC-1,0.765,0.999,0.798,0.741,0.648,1.32,1.12,1.39,0.989,0.836
NCI-H1666,0.903,0.961,0.774,0.756,0.841,1.06,1.05,0.925,0.944,1.05
NCI-H1993,0.937,0.875,0.554,0.727,0.625,0.797,0.776,0.727,0.856,0.649
NCI-H1975,0.791,0.73,0.672,0.66,0.595,0.733,0.711,0.753,0.708,0.582
HCC-44,0.988,1.05,0.933,0.992,1.02,0.981,1.05,1.09,1.08,1.11
